The results in this text go back to patent US7625889B2, “Substituted bis aryl and heteroaryl compounds as selective 5HT2A antagonists” (Aventis Pharmaceuticals Inc., priority 2005, dated 2009).

One may read the Ki as the dissociation constant of the complex between target and ligand, obtained from inhibition or displacement. A higher Ki goes with weaker binding.

T1 sequence (P28223 whole entry): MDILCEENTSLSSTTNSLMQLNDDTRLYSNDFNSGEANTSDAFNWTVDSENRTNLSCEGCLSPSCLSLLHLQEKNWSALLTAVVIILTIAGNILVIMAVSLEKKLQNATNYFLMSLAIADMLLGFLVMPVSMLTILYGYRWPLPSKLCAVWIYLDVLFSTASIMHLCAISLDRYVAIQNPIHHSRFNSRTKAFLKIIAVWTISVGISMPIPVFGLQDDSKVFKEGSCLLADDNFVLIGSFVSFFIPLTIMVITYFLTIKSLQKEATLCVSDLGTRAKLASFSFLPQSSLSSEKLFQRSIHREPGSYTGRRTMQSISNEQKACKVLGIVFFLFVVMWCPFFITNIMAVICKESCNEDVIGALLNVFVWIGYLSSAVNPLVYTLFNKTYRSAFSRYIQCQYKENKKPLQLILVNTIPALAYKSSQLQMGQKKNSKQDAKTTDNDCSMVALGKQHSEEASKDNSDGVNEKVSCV

The test addresses T1, human 5HT2A receptor (Homo sapiens, UniProt P28223).
T1 construct: expressed in transfected cells
Kind of test: Receptor Binding Assay, 5HT2A ([3H]N-methyl spiperone). The conditions noted are these: BHK cells expressing human 5HT2A receptor, 2.5 nM [3H]N-methyl spiperone, 37° C. On the procedure: Cell Culture: BHK cells stably expressing the human 5HT2A receptor were maintained in Dulbecco's Modified Eagle's Medium supplemented with […] Geneticin, 1% Sodium Pyruvate, 1% Pen-Strep and 10% Fetal Calf Serum, and treated with 5 mM sodium butyrate for 24 h to increase receptor expression before harvesting. Cells were harvested by mechanical scraping, washed with Phosphate Buffered Saline, and stored at −80° C. in 10% DMSO in 1 mg/mil aliquots until used. Protein determination was made according to Lowry.
Receptor Binding Assays: The 5HT2A and D2L assays were conducted at 37° C. in a Tris buffer containing salts (50 mM Tris Buffer, pH 7.7; 120 mM NaCl; 5 mM KCl; 2 mM CaCl2; 1 mM MgCl2). Cell membranes (previously prepared and frozen) were rapidly thawed. Membranes were diluted to an appropriate concentration (to produce 100 μg protein/assay point for 5HT2A, and 58 μg protein/assay point for D2L) in Tris buffer and homogenized. Assays were conducted on 96-well plates, using 2.5 and 1 nM [^3H]N-methyl spiperone as radioligand for 5HT2A and D2L assays, respectively. Plates were incubated at 37° C. in a shaking water bath for 30 and 60 min, for 5HT2A and D2L, respectively. Nonspecific binding was defined using 100 μM methylsergide and eticlopride, for 5HT2A and D2L, respectively.
Assays were terminated by rapid filtration through Millipore MAFB or MAFC (5HT2C) filter plates (presoaked in 50 mM Tris HCl, pH 7.7, with 0.1% Brij) using a Millipore Cell Harvester. The filter plates were then washed with ice-cold 50 mM Tris buffer, pH 7.7, and allowed to dry overnight. 50 μl of Microscint scintillation cocktail were added and the plates were counted in a Packard Topcount scintillation counter.
IC50 and Ki calculations were performed using nonlinear regression one-site competition analysis (GraphPad, Prism), with top and bottom limits held constant at 0% and 100% inhibition, respectively. The percent inhibition at each drug concentration was the average of duplicate determinations. Except where indicated, each determination was performed 2 to 5 times.
Take `CN(C)CCN(Cc1ccccc1)Cc1cccc(-c2ccc3[nH]ccc3c2)c1` [Example 1, N-Benzyl-N-[3-(1H-indol-5-yl)-benzyl]-N′,N′-dimethyl-ethane-1,2-diamine]: the Ki came out at 10.8 nM.

Regarding `CN(C)CCN(Cc1ccccc1)Cc1cccc(-c2ccc3[nH]c(=O)sc3c2)c1` [Example 2], the Ki is 2.4 nM. For `CN(C)CCN(Cc1ccccc1)Cc1cccc(-c2ccc3[nH]c(=O)n(C)c(=O)c3c2)c1` [Example 4] the value was 33.5 nM; for `CN(C)CCN(Cc1ccccc1)Cc1cccc(-c2ccc3[nH]c(=O)[nH]c3c2)c1` [Example 5], 218 nM; for `CN(C)CCN(Cc1ccccc1)Cc1cccc(-c2ccc3[nH]ncc3c2)c1` [Example 6], 2.7 nM.

The compound `CN(C)CCN(Cc1ccccc1)Cc1cccc(-c2cnc3c(c2)OCC(=O)N3)c1` [Example 7] showed a Ki of 210 nM. For `CN1CCN(Cc2cccc(-c3ccc4[nH]c(=O)oc4c3)c2)CC1` [Example 8] the value was 35.4 nM; for `CN1CCN(Cc2cccc(-c3ccc4[nH]nnc4c3)c2)CC1` [Example 9], 227 nM. In turn, `CN1CCN(Cc2cc(-c3ccc4[nH]ccc4c3)ccc2F)C(c2cccnc2)C1` (centres unmarked) [Example 10] had a Ki of 13.8 nM. For `CN1CCN(Cc2cc(-c3ccc4[nH]c(=O)oc4c3)co2)[C@H](c2ccc(F)cc2)C1` [Example 11] the value was 16.2 nM; for `CN1CCN(Cc2cc(-c3ccc4[nH]ccc4c3)ccc2F)C(c2ccccn2)C1` (centres unmarked) [Example 13], 3.3 nM; for `CN1CCN(Cc2ccc(-c3ccc4[nH]c(=O)oc4c3)o2)[C@@H](c2ccc(F)cc2)C1` [Example 14], 1.4 nM.

`CN1CCN(Cc2cc(-c3ccc4[nH]ccc4c3)ccc2F)C(c2ccc(C(F)(F)F)cc2)C1` (centres unmarked) [Example 15] showed a Ki of 13.8 nM. `CN(C)CCCN(Cc1ccccc1)Cc1cccc(-c2ccc3[nH]nnc3c2)c1` [Example 17, N-[3-(1H-Benzotriazol-5-yl)-benzyl]-N-benzyl-N′,N′-dimethyl-propane-1,3-diamine] registered a Ki of 7.2 nM. For `CN(C)CCN(Cc1ccccc1)Cc1cccc(-c2ccc3[nH]cnc3c2)c1` [Example 18] the value was 74.8 nM; for `CN(C)CCCN(Cc1ccccc1)Cc1cccc(-c2ccc3[nH]cnc3c2)c1` [Example 19], 76.5 nM; for `CN(C)CCN(Cc1cccc(-c2ccc3[nH]c(=O)oc3c2)c1)C(=O)c1ccccc1` [Example 24], 0.56 nM.

Turning to `CCN1CCCC1CN(Cc1cc(-c2ccc3[nH]c(=O)oc3c2)ccc1F)C(=O)c1ccc(F)cc1` (centres unmarked) [Example 25], the Ki turned out to be 0.6 nM. For `CN1CCC(N(Cc2cccc(-c3ccc4[nH]ccc4c3)c2)C(=O)c2cccs2)CC1` [Example 28] the value was 0.7 nM.

On to `CN1CCC(N(Cc2cc(-c3ccc4[nH]ccc4c3)ccc2F)C(=O)c2cccs2)CC1` [Example 29], for which affinity was put at a Ki of 0.7 nM. For `CN(C)CCN(Cc1cccc(-c2ccc3[nH]c(=O)oc3c2)c1)C(=O)c1ccc(Cl)cc1` [Example 30] the value was 0.77 nM; for `CCN1CCC[C@@H]1CN(Cc1cc(-c2ccc3[nH]c(=O)oc3c2)ccc1F)C(=O)c1ccc(F)cc1` [Example 31], 0.92 nM.

Regarding `CN(C)CCN(Cc1cccc(-c2ccc3[nH]c(=O)sc3c2)c1)C(=O)c1ccccc1` [Example 32], the affinity corresponds to a Ki of 1.1 nM. For `CN(C)CCN(Cc1cc(-c2ccc3[nH]ccc3c2)ccc1F)C(=O)c1cccs1` [Example 33] the value was 1.19 nM; for `CN(C)CCN(Cc1cc(-c2ccc3[nH]cc(C#N)c3c2)ccc1F)C(=O)c1ccc(F)cc1` [Example 35], 2.8 nM; for `CN(C)CCCN(Cc1cccc(-c2ccc3[nH]c(=O)sc3c2)c1)C(=O)c1ccccc1` [Example 36], 4.1 nM. Consider `CN(C)CCN(Cc1cccc(-c2ccc3[nH]c(=O)sc3c2)c1)C(=O)c1ccc(Cl)cc1` [Example 37], for which the Ki came to 4.1 nM. As to `O=C(c1ccc(F)cc1)N(Cc1cc(-c2ccc3[nH]ccc3c2)ccc1F)CC12CCN(CC1)CC2` [Example 38], the affinity, expressed as Ki, was 14.4 nM. As for `O=C(c1ccc(F)cc1)N(CCN1CCCC1)Cc1cncc(-c2ccc3[nH]ccc3c2)c1` [Example 39], the Ki worked out at 1.1 nM. In turn, `CN1CCC(N(Cc2ccc(F)c(-c3ccc4[nH]ccc4c3)c2)C(=O)c2ccc(F)cc2)CC1` [Example 40] came in with a Ki of 0.58 nM. For `O=c1[nH]c2ccc(-c3ccc(F)c(CN4CCNCC4c4cccs4)c3)cc2o1` (centres unmarked) [Example 43] the value was 0.6 nM; for `Fc1ccc([C@H]2CNCCN2Cc2cc(-c3ccc4[nH]nnc4c3)ccc2F)cc1` [Example 45], 0.99 nM. For `CN(C)CCN(Cc1ccc(F)cc1)Cc1cncc(-c2ccc3[nH]c(=O)oc3c2)c1` [Example 48] the value was 0.6 nM. For `CN(C)CCN(Cc1ccc(F)cc1)Cc1cncc(-c2ccc3[nH]ncc3c2)c1` [Example 49] the value was 0.4 nM; for `CN(C)CCN(Cc1ccc(F)cc1)Cc1cc(-c2ccc3[nH]c(=O)oc3c2)co1` [Example 50], 2.5 nM. With `N#Cc1c[nH]c2ccc(-c3ccc(F)c(CN4CCNC[C@@H]4c4ccc(F)cc4)c3)cc12` [Example 51], the affinity, expressed as Ki, was 9.2 nM. `CN1CCN(Cc2cc(-c3ccc4[nH]ccc4n3)ccc2F)[C@@H](c2ccc(F)cc2)C1` [Example 52] yielded a Ki of 3.1 nM. For `CCN1CCC[C@H]1CN(Cc1cc(-c2ccc3[nH]nnc3c2)ccc1F)C(=O)c1ccc(F)cc1` [Example 53, N-[5-(1H-Benzotriazol-5-yl)-2-fluoro-benzyl]-N-(1-ethyl-pyrrolidin-2S-ylmethyl)-4-fluoro-benzamide] the value was 2.13 nM.

Take `O=C(c1ccc(F)cc1)N(CCN1CCCC1)Cc1cccc(-c2ccc3[nH]nnc3c2)c1` [Example 54]: the affinity, expressed as Ki, was 0.9 nM. For `O=C(c1ccc(F)cc1)N(CCN1CCCC1)Cc1cc(-c2ccc3[nH]ncc3c2)ccc1F` [Example 55] the value was 0.31 nM; for `O=C(c1cccs1)N(CCN1CCCC1)Cc1cc(-c2ccc3[nH]nnc3c2)ccc1F` [Example 56], 6.51 nM; for `O=C(c1ccc(F)cc1F)N(CCN1CCCC1)Cc1cc(-c2ccc3[nH]nnc3c2)ccc1F` [Example 57], 0.71 nM. Turning to `CN1C2CCC1CC(N(Cc1cc(-c3ccc4[nH]ncc4c3)ccc1F)C(=O)c1ccc(F)cc1)C2` (centres unmarked) [Example 58], the Ki amounted to 1.23 nM. For `CN1CCC(N(Cc2cc(-c3ccc4[nH]c(=O)oc4c3)ccc2F)C(=O)c2ccc(F)cc2)CC1` [Example 59] the value was 0.89 nM; for `CN(C)CCN(Cc1cc(-c2ccc3c(c2)CCN3)ccc1F)C(=O)c1ccc(F)cc1` [Example 60], 1.13 nM.

In turn, `CN1CCCC(N(Cc2cc(-c3ccc4[nH]ncc4c3)ccc2F)C(=O)c2ccc(F)cc2)C1` (centres unmarked) [Example 61] came in with a Ki of 0.7 nM.

`CN1CC[C@@H](N(Cc2cc(-c3ccc4[nH]ncc4c3)ccc2F)C(=O)c2ccc(F)cc2)C1` [Example 62] displayed a Ki of 0.75 nM. For `CN1CC[C@H](N(Cc2cc(-c3ccc4[nH]ncc4c3)ccc2F)C(=O)c2ccc(F)cc2)C1` [Example 63] the value was 0.58 nM; for `CN1CCCC(N(Cc2cc(-c3ccc4[nH]ncc4c3)ccc2F)C(=O)c2ccc(F)cc2)C1` (centres unmarked) [Example 64], 0.6 nM. For `CN1[C@@H]2CC[C@H]1C[C@H](N(Cc1cc(-c3ccc4[nH]ncc4c3)ccc1F)C(=O)c1ccc(F)cc1)C2` [Example 65] the value was 0.9 nM; for `O=C(c1ccc(F)cc1)N(Cc1cc(-c2ccc3[nH]nnc3c2)ccc1F)C1CCNCC1` [Example 66], 0.67 nM. For `CC(C)N1CCC(N(Cc2cc(-c3ccc4[nH]nnc4c3)ccc2F)C(=O)c2ccc(F)cc2)CC1` [Example 67, N-[5-(1H-Benzotriazol-5-yl)-2-fluoro-benzyl]-4-fluoro-N-(1-isopropyl-piperidin-4-yl)-benzamide] the value was 2.16 nM; for `O=C(c1ccc(F)cc1)N(Cc1cc(-c2ccc3[nH]nnc3c2)ccc1F)C1CCN(C2CC2)CC1` [Example 68, N-[5-(1H-Benzotriazol-5-yl)-2-fluoro-benzyl]-N-(1-cyclopropyl-piperidin-4-yl)-4-fluoro-benzamide], 3.14 nM; for `CN1CCC(N(Cc2cc(-c3ccc4[nH]nnc4c3)ccc2F)C(=O)c2ccc(F)cc2)CC1` [Example 69, N-[5-(1H-Benzotriazol-5-yl)-2-fluoro-benzyl]-N-(1-methyl-piperidin-4-yl)-4-fluoro-benzamide], 1.35 nM. For the compound `CN1CCC(N(Cc2ccc(F)cc2)Cc2cc(-c3ccc4[nH]ccc4c3)ccc2F)CC1` [Example 70, (4-Fluoro-benzyl)-[2-fluoro-5-(1H-indol-5-yl)-benzyl]-(1-methyl-piperidin-4-yl)-amine], the affinity corresponds to a Ki of 0.72 nM. For `CN(C)CCN(Cc1ccc(F)cc1)Cc1cc(-c2ccc3[nH]ccc3c2)ccc1F` [Example 72] the value was 2.37 nM.
